This is an account of results in article PMC3179850 (Bioorganic & medicinal chemistry letters, 2009).

For experiment [1], the system named is HIV-1MDR/JSL (R5). The experiment can be described thus: microbe, parasite or virus in culture. The class given is cell-based.
The subject of experiment [2] is HIV-1MDR/G (X4). It counts as cell-based.
In experiment [3] the target is HIV-1 protease (Human immunodeficiency virus type 1 group M subtype B, UniProt P04585). Nature of the experiment: HIV-1 protease enzyme inhibitory assay. It counts as biochemical.
In experiment [4] the test system is HIV-1MDR/C (X4). The class given is cell-based.
In experiment [5] the test system is HIV-1MDR/MM (R5). It counts as cell-based.
Experiment [6] relates to HIV-1MDR/TM (X4). It counts as cell-based.

For `CC(C)CN(C[C@@H](O)[C@H](Cc1ccccc1)NC(=O)O[C@H]1CCOC1)S(=O)(=O)c1ccc(N)cc1` [APV, Amprenavir, reference compound], in experiment [1] (Human immunodeficiency virus 1), the IC50 (commonly the concentration needed to halve the response being measured) came out at 531 ± 69 nM.

`Cc1ccccc1CNC(=O)[C@H]1N(C(=O)[C@@H](O)[C@H](Cc2ccccc2)NC(=O)O[C@H]2CO[C@H]3OCC[C@H]32)CSC1(C)C` [Inhibitor 3b]: the potency over amprenavir in experiment [2] was not below 5 fold; in experiment [4] it was not below 5 fold; in experiment [1] (HIV-1MDR/JSL), “over 2 fold”; in experiment [5], not below 5 fold; in experiment [6], not below 5 fold. Besides, the potency enhancement result in experiment [3] (with respect to 3a, enzyme inhibition) is given as “over 40 fold”.

Consider `Cc1ccccc1CNC(=O)[C@H]1N(C[C@@H](O)[C@H](Cc2ccccc2)NC(=O)O[C@H]2CCOC2)CSC1(C)C` [Inhibitor 14a], for which, in experiment [3] (relative to corresponding inhibitor 3a), the “reduction in enzyme inhibitory activity” value is “over 400 fold”.

As to `Cc1cc(CO)ccc1CNC(=O)[C@H]1N(C(=O)[C@@H](O)[C@H](Cc2ccccc2)NC(=O)O[C@H]2CO[C@H]3OCC[C@H]32)CSC1(C)C` [Inhibitor 16c], the “enzyme inhibitory activity (in words)” value in experiment [3] is recorded as “sub-nanomolar”.
